Key:
Human SQOR [1] = target: T1, Human SQOR (Homo sapiens, UniProt Q9Y6N5); assay type: biochemical
T1 construct: made in house
Method: The acidity of the persulfidated SQOR was evaluated by the pH-dependence of the steady-state rates. For enzymes that catalyze reactions with one substrate, the kinetic parameter kcat/Km (specificity constant) is an apparent second-order rate constant that reports on the properties of the free enzyme and the free substrate ([32]). kcat/Km can be calculated from the kinetic parameters kcat and Km obtained from typical Michaelis–Menten analysis (Equation 1). […]
SQOR uses three substrates: H2S, a sulfur acceptor (Acc^−), and CoQ (Fig. 1A). At saturating concentrations of H2S and CoQ, the kcat/Km^Acc- represents the apparent rate constant for the reaction between the sulfur acceptor and the Cys379SSH of the bis-persulfidated SQOR, and its pH-dependency reports on the pKa of both free species. Although the pH dependence of human SQOR activity has been reported ([25]), the pH dependence of kcat/Km is unavailable. The steady-state rate of SQOR was determined by monitoring the reduction of coenzyme Q1 (CoQ1) at 278 nm at varying pH at 25 °C. […]. Therefore, in the experiments with cyanide, the reactions were started with cyanide instead of SQOR so that the contribution of SQOR with H2S alone could be subtracted.
In experiments with sulfite, steady-state time courses with varying concentrations of sulfite (0.01–8 mM) were recorded, and linear functions were fitted to the first 15 to 40 s following SQOR addition (Fig. 3A). The slope before SQOR addition was subtracted to correct for the background nonenzymatic reduction of CoQ1, which was minimal. From the hyperbolic fit of the activity versus sulfite concentration plot (Fig. 3B), the kinetic parameters kcat^sulfite and Km^sulfite were obtained, and the kcat/Km^sulfite for each pH were calculated. As expected, when the kcat/Km^sulfite were plotted against pH, a bell-shaped profile was obtained (Fig. 3C), consistent with a reaction between a deprotonated species and a protonated one. An equation with two pKa was fitted to the data (Equation 3), assuming that deprotonated sulfite and protonated SQOR persulfide were the reacting species. […]. […]
The steady-state rates were obtained from linear fits to the data during the first 4 to 20 s following cyanide addition, and the slopes before cyanide addition were subtracted. The kcat/Km^cyanide at each pH was calculated according to Equation 2 using the enzyme (50 nM) and cyanide (90 μM) initial concentrations. […]
Human SQOR was expressed and purified as reported previously ([24], [25]). SQOR concentration was determined from the FAD absorbance at 450 nm, using ε = 11,500 M^−1 cm^−1 ([25]). […]
The activity of SQOR was measured at different pHs in a temperature-controlled spectrophotometer (Shimadzu UV-2600 or UV-1900i). […]

TST persulfide = TST persulfide (Homo sapiens, UniProt Q16762)
Method: Stopped-flow kinetic studies were performed on the isolated half-reactions between TST persulfide and sulfur acceptors. Preformed stocks of TST persulfide were used to monitor its reaction with sulfite or cyanide at varying pH at 25 °C. The reactions were followed by the changes in the intrinsic fluorescence of TST, taking advantage of the higher fluorescence in the thiol versus the persulfidated state, as reported for the bovine enzyme ([37]).
TST persulfide was exposed to a pseudo-first order excess of sulfite (15 and 75 μM) or cyanide (25 and 100 μM), and the increases in the intrinsic fluorescence were recorded (Fig. 5, A and B). Single exponential functions were fitted to the time courses. The kobs values were divided by the sulfite or cyanide concentration and the second order rate constants, kpH, were determined at each pH.
The persulfidated TST was diluted in ultrapure water in one of the stopped-flow syringes (1.6–2.0 μM, ∼ 2 mM Tris) and mixed with sulfite (30 and 150 μM) or cyanide (50 and 200 μM) prepared in the other syringe in ACES/Tris/ethanolamine buffer 2× in a pH range of 5.60 to 10.38, at 25 °C. The final concentrations were halved as a consequence of the stopped-flow mixing. The increase in intrinsic fluorescence due to thiol formation was recorded during 0.025 to 10 s depending on the time course. The final pH of the reaction mixtures was measured.

Human SQOR [2] = target: T1, Human SQOR; conditions: potassium phosphate, pH 7.4, 4 °C; cited from earlier work
[3] = reported value; cited from earlier work
Human TST = Human TST (Homo sapiens, UniProt Q16762); conditions: pH 7.03
Method: The activity of TST was measured at different pH values and 25 °C by the steady-state rate of thiocyanate formation. […] After 30 to 90 s, the reactions were stopped by removing 305 μl aliquots and mixing them with 20 μl of 38% formaldehyde (Biopack) and 25 μl of 140 mM FeCl3·6H2O (Sigma-Aldrich) diluted in 32.5% HNO3 (Dorwil). Absorbances at 460 nm (Varian Cary 60, Agilent) were recorded immediately and interpolated into a 0 to 30 μM thiocyanate calibration curve. The thiocyanate standards were prepared daily in ACES/Tris/ethanolamine buffer, pH 7.8, and underwent the same procedures as the samples ([1]).
After 220 s, 5 μl of 5 M NaOH were added, changing the pH to 8.5. The concentrations of thiocyanate produced at 252 and 310 s were measured as described.

[4] = system: human 3-mercaptopyruvate sulfurtransferase; set-up: method as in earlier work; conditions: cited from earlier work

T1 sequence (Q9Y6N5 whole entry): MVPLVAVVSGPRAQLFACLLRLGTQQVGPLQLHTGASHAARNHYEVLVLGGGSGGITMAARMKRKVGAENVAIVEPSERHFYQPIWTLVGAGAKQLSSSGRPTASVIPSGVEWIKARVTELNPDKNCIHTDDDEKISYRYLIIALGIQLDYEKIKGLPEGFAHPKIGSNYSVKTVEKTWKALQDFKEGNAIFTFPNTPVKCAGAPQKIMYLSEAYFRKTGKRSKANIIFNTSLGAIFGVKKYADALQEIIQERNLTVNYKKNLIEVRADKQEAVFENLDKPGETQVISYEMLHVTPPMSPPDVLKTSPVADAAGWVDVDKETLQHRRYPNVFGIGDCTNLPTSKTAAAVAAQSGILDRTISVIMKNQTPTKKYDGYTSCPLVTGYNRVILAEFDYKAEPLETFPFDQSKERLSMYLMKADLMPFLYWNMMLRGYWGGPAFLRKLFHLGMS
Chain of TST persulfide (Q16762 whole entry): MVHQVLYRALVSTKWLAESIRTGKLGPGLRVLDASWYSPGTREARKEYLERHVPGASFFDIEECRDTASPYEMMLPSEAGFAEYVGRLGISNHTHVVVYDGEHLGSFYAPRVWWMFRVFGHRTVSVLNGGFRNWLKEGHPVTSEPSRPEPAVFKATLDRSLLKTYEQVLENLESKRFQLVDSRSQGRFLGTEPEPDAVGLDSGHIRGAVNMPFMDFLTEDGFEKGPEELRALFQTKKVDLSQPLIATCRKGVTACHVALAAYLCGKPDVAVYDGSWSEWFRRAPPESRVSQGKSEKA
Chain of Human TST (Q16762 whole entry): as above

For `O=S(O)O` [sulfite], the Km (Human SQOR [1]; acetic/MES/Tris buffer containing 120 mM NaCl, pH 7.17, read-out: apparent Km^sulfite) was 2400 ± 200 µM, the “pKa of the deprotonated species (sulfite)” value (Human SQOR [1]; fit of kcat/Km^sulfite of SQOR versus pH, 25 °C) was 6.8 ± 0.5 and the “pKa of the deprotonated species (sulfite)” value (TST persulfide) was 6.89 ± 0.09. The “second-order rate constant between the enzyme CT complex and sulfite” value (Human SQOR [2]) was 390000 M⁻¹ s⁻¹ and the pKa [3] was 6.91.

B1: TST (protein, UniProt Q16762 2-297, looked up)
Thiosulfate sulfurtransferase: VHQVLYRALVSTKWLAESIRTGKLGPGLRVLDASWYSPGTREARKEYLERHVPGASFFDIEECRDTASPYEMMLPSEAGFAEYVGRLGISNHTHVVVYDGEHLGSFYAPRVWWMFRVFGHRTVSVLNGGFRNWLKEGHPVTSEPSRPEPAVFKATLDRSLLKTYEQVLENLESKRFQLVDSRSQGRFLGTEPEPDAVGLDSGHIRGAVNMPFMDFLTEDGFEKGPEELRALFQTKKVDLSQPLIATCRKGVTACHVALAAYLCGKPDVAVYDGSWSEWFRRAPPESRVSQGKSEKA
For B1, the “apparent pKa of steady-state activity” value (Human TST) was 8.47 ± 0.06.

B2: human 3-mercaptopyruvate sulfurtransferase: sulfurtransferase enzyme, literature thiol pKa (protein, UniProt P25325 2-297, looked up)
3-mercaptopyruvate …: ASPQLCRALVSAQWVAEALRAPRAGQPLQLLDASWYLPKLGRDARREFEERHIPGAAFFDIDQCSDRTSPYDHMLPGAEHFAEYAGRLGVGAATHVVIYDASDQGLYSAPRVWWMFRAFGHHAVSLLDGGLRHWLRQNLPLSSGKSQPAPAEFRAQLDPAFIKTYEDIKENLESRRFQVVDSRATGRFRGTEPEPRDGIEPGHIPGTVNIPFTDFLSQEGLEKSPEEIRHLFQEKKVDLSKPLVATCGSGVTACHVALGAYLCGKPDVPIYDGSWVEWYMRARPEDVISEGRGKTH
In the case of B2, the “pKa of the thiol” value [4] is listed as 5.2.
